Where two headings read alike, the source gives them in different places. Positions of bridges follow the written chain, without caps; N, C: chain ends. Non-standard residues stand in square brackets, D forms with d. Residues, ends and D or L forms follow the SMILES beside them. Phe(3,4-Cl2) = N[C@@H](Cc1ccc(Cl)c(Cl)c1)C(=O)O Where only a bound is given, the exact number is not on record here.

Holding throughout (assay): cell-based
One experiment concerns the target hNav1.5 (Homo sapiens, UniProt Q14524).
A further experiment concerns the target hNav1.7 (Homo sapiens, UniProt Q15858). The class given is cell-based.
The target in the next experiment is hNav1.3 (Homo sapiens, UniProt Q9NY46). As to conditions: IonWorks Quattro, read-out: IWQ Use Nav1.3.
Setting [1] is: IonWorks Quattro, use-dependent protocol, hNav1.5, read-out: IWQ Use Nav1.5.
Where [2] appears, read: IonWorks Quattro, use-dependent protocol, hNav1.7, read-out: IWQ Use Nav1.7.
The mark [3] stands for this setting: use-dependent protocol, hNav1.3.

hNav1.5, sequence (Q14524 whole entry, looked up): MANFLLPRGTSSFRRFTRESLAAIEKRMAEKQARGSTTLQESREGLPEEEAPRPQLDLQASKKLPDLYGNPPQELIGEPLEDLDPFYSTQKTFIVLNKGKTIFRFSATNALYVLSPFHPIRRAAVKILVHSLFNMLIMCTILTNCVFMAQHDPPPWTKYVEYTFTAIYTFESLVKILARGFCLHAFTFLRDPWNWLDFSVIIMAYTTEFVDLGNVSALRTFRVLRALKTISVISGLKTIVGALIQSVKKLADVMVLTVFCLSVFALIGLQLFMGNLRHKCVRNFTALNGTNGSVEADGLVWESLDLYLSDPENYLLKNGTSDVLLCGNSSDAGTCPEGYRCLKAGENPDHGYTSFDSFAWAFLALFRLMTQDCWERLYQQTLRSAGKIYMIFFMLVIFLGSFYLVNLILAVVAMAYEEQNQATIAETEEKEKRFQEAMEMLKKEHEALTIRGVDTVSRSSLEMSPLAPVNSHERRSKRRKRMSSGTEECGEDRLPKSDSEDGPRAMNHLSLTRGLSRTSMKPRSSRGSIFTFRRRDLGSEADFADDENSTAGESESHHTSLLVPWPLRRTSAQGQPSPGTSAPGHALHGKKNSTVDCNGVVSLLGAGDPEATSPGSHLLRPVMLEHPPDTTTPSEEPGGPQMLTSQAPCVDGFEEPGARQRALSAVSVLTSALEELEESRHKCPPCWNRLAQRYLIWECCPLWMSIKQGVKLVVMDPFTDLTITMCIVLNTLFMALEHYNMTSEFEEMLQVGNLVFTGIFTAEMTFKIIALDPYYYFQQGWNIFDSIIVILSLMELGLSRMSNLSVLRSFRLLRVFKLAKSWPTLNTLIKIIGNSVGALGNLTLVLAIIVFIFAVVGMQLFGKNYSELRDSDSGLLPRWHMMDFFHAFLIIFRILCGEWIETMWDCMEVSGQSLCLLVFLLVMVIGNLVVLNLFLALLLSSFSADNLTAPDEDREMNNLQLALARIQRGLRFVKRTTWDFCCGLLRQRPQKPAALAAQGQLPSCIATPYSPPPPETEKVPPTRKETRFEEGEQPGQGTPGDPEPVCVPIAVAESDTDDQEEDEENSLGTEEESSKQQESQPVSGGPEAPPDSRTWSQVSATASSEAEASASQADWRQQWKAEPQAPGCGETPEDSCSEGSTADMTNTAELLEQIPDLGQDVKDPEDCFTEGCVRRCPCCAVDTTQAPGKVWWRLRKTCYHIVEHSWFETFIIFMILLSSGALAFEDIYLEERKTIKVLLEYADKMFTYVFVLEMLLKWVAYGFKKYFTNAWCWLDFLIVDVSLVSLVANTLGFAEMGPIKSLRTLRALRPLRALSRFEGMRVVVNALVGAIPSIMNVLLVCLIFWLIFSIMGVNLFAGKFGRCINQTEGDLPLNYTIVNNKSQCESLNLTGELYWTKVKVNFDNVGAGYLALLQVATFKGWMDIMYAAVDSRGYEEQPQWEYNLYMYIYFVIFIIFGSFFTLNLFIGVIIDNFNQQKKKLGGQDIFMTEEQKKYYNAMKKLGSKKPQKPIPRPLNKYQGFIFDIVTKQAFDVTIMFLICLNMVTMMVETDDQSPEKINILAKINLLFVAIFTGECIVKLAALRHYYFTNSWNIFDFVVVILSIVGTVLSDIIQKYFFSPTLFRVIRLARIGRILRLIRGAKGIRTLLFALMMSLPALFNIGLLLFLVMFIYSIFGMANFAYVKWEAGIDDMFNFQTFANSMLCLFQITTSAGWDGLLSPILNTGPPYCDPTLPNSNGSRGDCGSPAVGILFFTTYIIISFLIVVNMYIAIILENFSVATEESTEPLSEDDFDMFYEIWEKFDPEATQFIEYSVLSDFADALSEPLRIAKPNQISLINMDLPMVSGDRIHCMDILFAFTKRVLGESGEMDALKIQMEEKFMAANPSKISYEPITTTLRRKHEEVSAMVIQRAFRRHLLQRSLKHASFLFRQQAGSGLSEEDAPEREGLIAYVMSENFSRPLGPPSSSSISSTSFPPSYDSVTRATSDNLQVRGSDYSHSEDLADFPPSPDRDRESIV
hNav1.7, sequence (Q15858 whole entry, looked up): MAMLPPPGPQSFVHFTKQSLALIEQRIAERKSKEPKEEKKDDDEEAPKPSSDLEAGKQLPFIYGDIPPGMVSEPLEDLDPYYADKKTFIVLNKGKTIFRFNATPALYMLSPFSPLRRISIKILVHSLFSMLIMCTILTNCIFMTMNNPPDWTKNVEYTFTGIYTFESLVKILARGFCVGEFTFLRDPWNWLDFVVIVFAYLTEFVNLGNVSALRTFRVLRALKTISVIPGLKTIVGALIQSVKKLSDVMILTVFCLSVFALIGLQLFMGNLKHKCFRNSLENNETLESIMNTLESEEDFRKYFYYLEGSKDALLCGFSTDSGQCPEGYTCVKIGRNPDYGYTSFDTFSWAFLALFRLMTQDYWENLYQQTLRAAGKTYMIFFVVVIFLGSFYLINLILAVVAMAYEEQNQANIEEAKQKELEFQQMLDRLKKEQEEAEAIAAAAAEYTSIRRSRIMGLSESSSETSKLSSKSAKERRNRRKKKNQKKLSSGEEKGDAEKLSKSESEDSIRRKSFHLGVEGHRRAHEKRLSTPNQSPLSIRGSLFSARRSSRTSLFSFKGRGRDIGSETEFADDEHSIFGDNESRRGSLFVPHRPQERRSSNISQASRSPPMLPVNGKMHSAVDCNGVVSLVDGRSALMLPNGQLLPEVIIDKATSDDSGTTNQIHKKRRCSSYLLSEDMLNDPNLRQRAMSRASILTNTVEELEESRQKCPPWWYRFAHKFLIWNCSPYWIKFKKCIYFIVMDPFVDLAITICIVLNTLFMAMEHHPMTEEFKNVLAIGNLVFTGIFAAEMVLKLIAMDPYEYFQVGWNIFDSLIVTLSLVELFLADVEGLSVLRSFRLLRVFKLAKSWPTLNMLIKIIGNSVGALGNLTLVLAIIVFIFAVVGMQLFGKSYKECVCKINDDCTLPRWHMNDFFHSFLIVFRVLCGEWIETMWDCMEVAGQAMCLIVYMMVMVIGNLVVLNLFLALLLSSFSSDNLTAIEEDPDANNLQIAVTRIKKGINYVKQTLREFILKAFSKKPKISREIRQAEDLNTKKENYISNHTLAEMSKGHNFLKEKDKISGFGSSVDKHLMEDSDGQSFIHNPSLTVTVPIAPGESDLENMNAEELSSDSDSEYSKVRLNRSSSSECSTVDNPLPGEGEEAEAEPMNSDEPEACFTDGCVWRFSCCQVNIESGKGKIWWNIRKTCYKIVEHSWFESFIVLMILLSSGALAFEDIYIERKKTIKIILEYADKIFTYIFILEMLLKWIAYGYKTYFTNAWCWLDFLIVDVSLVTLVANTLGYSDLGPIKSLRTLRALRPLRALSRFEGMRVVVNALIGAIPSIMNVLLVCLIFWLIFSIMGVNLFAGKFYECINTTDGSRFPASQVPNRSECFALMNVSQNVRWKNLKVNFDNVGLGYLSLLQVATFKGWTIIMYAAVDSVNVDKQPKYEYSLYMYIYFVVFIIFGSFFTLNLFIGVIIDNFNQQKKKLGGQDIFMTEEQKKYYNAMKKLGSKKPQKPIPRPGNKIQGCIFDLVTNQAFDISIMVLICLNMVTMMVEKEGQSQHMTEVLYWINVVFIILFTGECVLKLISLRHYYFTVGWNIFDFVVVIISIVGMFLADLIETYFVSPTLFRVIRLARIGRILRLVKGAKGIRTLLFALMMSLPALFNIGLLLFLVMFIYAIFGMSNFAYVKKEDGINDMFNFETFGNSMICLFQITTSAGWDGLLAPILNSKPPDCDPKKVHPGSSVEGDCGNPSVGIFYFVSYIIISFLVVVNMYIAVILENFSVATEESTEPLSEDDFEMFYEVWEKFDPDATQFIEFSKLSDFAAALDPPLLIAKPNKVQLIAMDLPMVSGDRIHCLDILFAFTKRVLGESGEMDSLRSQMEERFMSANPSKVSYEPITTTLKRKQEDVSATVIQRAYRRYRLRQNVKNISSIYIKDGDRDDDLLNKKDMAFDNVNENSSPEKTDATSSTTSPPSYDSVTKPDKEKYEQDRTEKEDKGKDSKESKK

`CC[C@H](C)[C@@H]1NC(=O)[C@@H]2CSSC[C@@H]3NC(=O)[C@H](C(C)C)NC(=O)[C@H](CC(C)C)NC(=O)[C@H](CC(N)=O)NC(=O)[C@@H]4CCCN4C(=O)[C@H](CCCNC(=N)N)NC(=O)[C@H](CSSC[C@H](NC(=O)[C@@H](N)CC(=O)O)C(=O)N[C@@H](CC(C)C)C(=O)NCC(=O)N[C@@H](Cc4ccccc4)C(=O)N[C@@H](CCSC)C(=O)N[C@@H](CCCNC(=N)N)C(=O)N[C@@H](CCCCN)C(=O)N2)NC(=O)[C@H](CSSC[C@@H](C(=O)N[C@@H](CCCCN)C(=O)N[C@@H](Cc2ccc(O)cc2)C(=O)N[C@H](C(=O)N[C@@H](Cc2ccccc2)C(N)=O)C(C)C)NC(=O)[C@H](C)NC(=O)[C@H](CCCCN)NC(=O)[C@H](Cc2cnc[nH]2)NC(=O)[C@H]([C@@H](C)O)NC(=O)[C@H](CCCNC(=N)N)NC(=O)[C@H](CO)NC3=O)NC(=O)[C@H](CCCCN)NC(=O)[C@H](CC(=O)O)NC(=O)[C@H](CC(N)=O)NC(=O)[C@H](CC(=O)O)NC(=O)[C@@H]2CCCN2C1=O` [compound 47] (H-DCLGFMRKCIPDNDKCCRPNLVCSRTHKACKYVF-NH2; disulfide 2-17, 9-23, 16-30): the IC50 on hNav1.5 (Table 24, IonWorks Quattro, use, […], read-out: IWQ Use Nav1.5) is 16.2 µM; on hNav1.7 (Table 24, IonWorks Quattro, use, […], read-out: IWQ Use Nav1.7), 11700 nM; on hNav1.3 (Table 24, use, […]) it was 27500 nM.

On to `CC[C@H](C)[C@@H]1NC(=O)[C@@H]2CSSC[C@@H]3NC(=O)[C@H](C(C)C)NC(=O)[C@H](CC(C)C)NC(=O)[C@H](CC(N)=O)NC(=O)[C@@H]4CCCN4C(=O)[C@H](CCCNC(=N)N)NC(=O)[C@H](CSSC[C@H](NC(=O)[C@@H](N)CC(=O)O)C(=O)N[C@@H](CC(C)C)C(=O)NCC(=O)N[C@@H](Cc4ccccc4)C(=O)N[C@@H](CCSC)C(=O)N[C@@H](CCCNC(=N)N)C(=O)N[C@@H](CCCCN)C(=O)N2)NC(=O)[C@H](CSSC[C@@H](C(=O)N[C@@H](CCCCN)C(=O)N[C@@H](Cc2ccc(O)cc2)C(=O)NCC(=O)N[C@@H](Cc2ccccc2)C(N)=O)NC(=O)[C@H](Cc2c[nH]c4ccccc24)NC(=O)[C@H](CCCCN)NC(=O)[C@H](Cc2c[nH]cn2)NC(=O)[C@H]([C@@H](C)O)NC(=O)[C@H](CCCNC(=N)N)NC(=O)[C@H](CO)NC3=O)NC(=O)[C@H](CCCCN)NC(=O)[C@H](CC(=O)O)NC(=O)[C@H](CC(N)=O)NC(=O)[C@H](CC(=O)O)NC(=O)[C@@H]2CCCN2C1=O` [compound 401] (H-DCLGFMRKCIPDNDKCCRPNLVCSRTHKWCKYGF-NH2; disulfide 2-17, 9-23, 16-30), for which the IC50 at hNav1.5 (IWQ Use Nav1.5 (μM)) is greater than 5 µM; on hNav1.7 (Table 26, IonWorks Quattro, use, […], read-out: IWQ Use Nav1.7) it was 290 nM; on hNav1.3 (Table 26, use, […]), 40 nM.

For the compound `CC[C@H](C)[C@@H]1NC(=O)[C@@H]2CSSC[C@@H]3NC(=O)[C@H](C(C)C)NC(=O)[C@H](CC(C)C)NC(=O)[C@H](CC(N)=O)NC(=O)[C@@H]4CCCN4C(=O)[C@H](CCCNC(=N)N)NC(=O)[C@H](CSSC[C@H](NC(=O)[C@@H](N)CC(=O)O)C(=O)N[C@@H](CC(C)C)C(=O)NCC(=O)N[C@@H](Cc4ccc(C)cc4)C(=O)N[C@@H](CC(C)C)C(=O)N[C@@H](CCCNC(=N)N)C(=O)N[C@@H](CCCCN)C(=O)N2)NC(=O)[C@H](CSSC[C@@H](C(=O)N[C@@H](CCCCN)C(=O)N[C@@H](Cc2ccc(O)cc2)C(=O)N[C@H](C(=O)N[C@@H](Cc2ccccc2)C(N)=O)C(C)C)NC(=O)[C@H](Cc2c[nH]c4ccccc24)NC(=O)[C@H](CCCCN)NC(=O)[C@H](Cc2c[nH]cn2)NC(=O)[C@H]([C@@H](C)O)NC(=O)[C@H](CCCNC(=N)N)NC(=O)[C@H](CO)NC3=O)NC(=O)[C@H](CCCCN)NC(=O)[C@H](CC(=O)O)NC(=O)[C@H](CC(N)=O)NC(=O)[C@H](CC(=O)O)NC(=O)[C@@H]2CCCN2C1=O` [compound 670], the IC50 at hNav1.5 (setting [1]) was greater than 5 µM; at hNav1.7 (setting [2]), 190 nM; at hNav1.3 (setting [3]), 55 nM.

With `CC[C@H](C)[C@@H]1NC(=O)[C@@H]2CSSC[C@@H]3NC(=O)[C@H](C(C)C)NC(=O)[C@H](CC(C)C)NC(=O)[C@H](CC(N)=O)NC(=O)[C@@H]4CCCN4C(=O)[C@H](CCCNC(=N)N)NC(=O)[C@H](CSSC[C@H](NC(=O)[C@@H](N)CC(=O)O)C(=O)N[C@@H](CC(C)C)C(=O)NCC(=O)N[C@@H](Cc4ccc(Cl)c(Cl)c4)C(=O)N[C@@H](Cc4ccccc4)C(=O)N[C@@H](CCCNC(=N)N)C(=O)N[C@@H](CCCCN)C(=O)N2)NC(=O)[C@H](CSSC[C@@H](C(=O)N[C@@H](CCCCN)C(=O)N[C@@H](Cc2ccc(O)cc2)C(=O)N[C@H](C(=O)N[C@@H](Cc2ccccc2)C(N)=O)C(C)C)NC(=O)[C@H](Cc2c[nH]c4ccccc24)NC(=O)[C@H](CCCCN)NC(=O)[C@H](Cc2c[nH]cn2)NC(=O)[C@H]([C@@H](C)O)NC(=O)[C@H](CCCNC(=N)N)NC(=O)[C@H](CO)NC3=O)NC(=O)[C@H](CCCCN)NC(=O)[C@H](CC(=O)O)NC(=O)[C@H](CC(N)=O)NC(=O)[C@H](CC(=O)O)NC(=O)[C@@H]2CCCN2C1=O` [compound 621] (H-DCLG[Phe(3,4-Cl2)]FRKCIPDNDKCCRPNLVCSRTHKWCKYVF-NH2; disulfide 2-17, 9-23, 16-30), the IC50 at hNav1.5 (setting [1]) turned out to be 4.1 µM; on hNav1.7 (setting [2]) it was 48 nM; at hNav1.3 (setting [3]), 5 nM.

For the compound `CCC[C@@H]1NC(=O)CNC(=O)[C@H](CC(C)C)NC(=O)[C@@H](NC(=O)[C@@H](N)CC(=O)O)CSSC[C@@H]2NC(=O)[C@@H]3CSSC[C@@H](C(=O)N[C@@H](CCCCN)C(=O)N[C@@H](Cc4ccc(O)cc4)C(=O)N[C@H](C(=O)N[C@@H](Cc4ccccc4)C(N)=O)C(C)C)NC(=O)[C@H](Cc4c[nH]c5ccccc45)NC(=O)[C@H](CCCCN)NC(=O)[C@H](Cc4cnc[nH]4)NC(=O)[C@H]([C@@H](C)O)NC(=O)[C@H](CCCNC(=N)N)NC(=O)[C@H](CO)NC(=O)[C@H](CSSC[C@H](NC(=O)[C@H](CCCCN)NC(=O)[C@H](CCCNC(=N)N)NC(=O)[C@H](CCSC)NC1=O)C(=O)N[C@@H]([C@@H](C)CC)C(=O)N1CCC[C@H]1C(=O)N[C@@H](CC(=O)O)C(=O)N[C@@H](CC(N)=O)C(=O)N[C@@H](CC(=O)O)C(=O)N[C@@H](CCCCN)C(=O)N3)NC(=O)[C@H](C(C)C)NC(=O)[C@H](CC(C)C)NC(=O)[C@H](CC(N)=O)NC(=O)[C@@H]1CCCN1C(=O)[C@H](CCCNC(=N)N)NC2=O` [compound 650], the IC50 was greater than 5 µM at hNav1.5 (setting [1]), 200 nM against hNav1.7 and 570 nM at hNav1.3 (setting [3]).

As for `CC[C@H](C)[C@@H]1NC(=O)[C@@H]2CSSC[C@@H]3NC(=O)[C@H](C(C)C)NC(=O)[C@H](CC(C)C)NC(=O)[C@H](CC(N)=O)NC(=O)[C@@H]4CCCN4C(=O)[C@H](CCCNC(=N)N)NC(=O)[C@H](CSSC[C@H](NC(=O)[C@@H](N)CC(=O)O)C(=O)N[C@@H](CC(C)C)C(=O)NCC(=O)N[C@@H](C)C(=O)N[C@@H](CC(C)C)C(=O)N[C@@H](CCCNC(=N)N)C(=O)N[C@@H](CCCCN)C(=O)N2)NC(=O)[C@H](CSSC[C@@H](C(=O)N[C@@H](CCCCN)C(=O)N[C@@H](Cc2ccc(O)cc2)C(=O)N[C@H](C(=O)N[C@@H](Cc2ccccc2)C(=O)O)C(C)C)NC(=O)[C@H](Cc2c[nH]c4ccccc24)NC(=O)[C@H](CCCNC(=N)N)NC(=O)[C@H](Cc2c[nH]cn2)NC(=O)[C@H]([C@@H](C)O)NC(=O)[C@H](CCCNC(=N)N)NC(=O)[C@H](CO)NC3=O)NC(=O)[C@H](CCCCN)NC(=O)[C@H](CC(=O)O)NC(=O)[C@H](Cc2c[nH]cn2)NC(=O)[C@H](CC(=O)O)NC(=O)[C@@H]2CCCN2C1=O` [compound 864] (H-DCLGALRKCIPDHDKCCRPNLVCSRTHRWCKYVF-OH; disulfide 2-17, 9-23, 16-30), the IC50 is greater than 5 µM on hNav1.5 (IonWorks Quattro, use-dependent block, hNav1.5, read-out: IWQ Use Nav1.5); greater than 5000 nM at hNav1.7 (IonWorks Quattro, use-dependent block, hNav1.7, read-out: IWQ Use Nav1.7); 3900 nM at hNav1.3 (use-dependent block, hNav1.3).

On to `CC[C@H](C)[C@@H]1NC(=O)[C@@H]2CSSC[C@@H]3NC(=O)[C@H](C(C)C)NC(=O)[C@H](CC(C)C)NC(=O)[C@H](CC(N)=O)NC(=O)[C@@H]4CCCN4C(=O)[C@H](CCCNC(=N)N)NC(=O)[C@H](CSSC[C@H](NC(=O)[C@@H](N)CC(=O)O)C(=O)N[C@@H](CC(C)C)C(=O)NCC(=O)N[C@@H](Cc4ccc(F)cc4)C(=O)N[C@@H](CC(C)C)C(=O)N[C@@H](CCCNC(=N)N)C(=O)N[C@@H](CCCCN)C(=O)N2)NC(=O)[C@H](CSSC[C@@H](C(=O)N[C@@H](CCCCN)C(=O)N[C@@H](Cc2ccc(O)cc2)C(=O)N[C@H](C(=O)N[C@@H](Cc2ccccc2)C(N)=O)C(C)C)NC(=O)[C@H](Cc2c[nH]c4ccccc24)NC(=O)[C@H](CCCCN)NC(=O)[C@H](Cc2c[nH]cn2)NC(=O)[C@H]([C@@H](C)O)NC(=O)[C@H](CCCNC(=N)N)NC(=O)[C@H](CO)NC3=O)NC(=O)[C@H](CCCCN)NC(=O)[C@H](CC(=O)O)NC(=O)[C@H](CC(N)=O)NC(=O)[C@H](CC(=O)O)NC(=O)[C@@H]2CCCN2C1=O` [compound 669], for which the IC50 on hNav1.5 (setting [1]) was greater than 5 µM; on hNav1.7 (setting [2]) it was 91 nM; on hNav1.3 (setting [3]), 37 nM.
